From US20070128217A1 (priority 2003, published 2007)

Tests used:
[1] = system: control sera (pooled serum of ten healthy LUMC hospital workers; commercial negative donor pooled serum from the Dutch bloodbank); format: binding, human; parameters: Binding of Control serum LUMC to linear peptides / Binding of Control serum Blood-bank to linear peptides / Binding of Control serum LUMC to looped peptides / Binding of Control Serum Blood-Bank to Looped peptides / Binding of Control serum LUMC to linear peptides of the protein M of SARS-CoV Urbani / Binding of Control serum Blood-bank to linear peptides of the protein M of SARS-CoV Urbani / Binding of Control serum LUMC to looped peptides of the protein M of SARS-CoV Urbani / Binding of Control Serum Blood-Bank to Looped peptides of the protein M of SARS-CoV Urbani: unit not given here
[2] = system: antibodies in sera from SARS patients (sera 1a, 1b, 2, 6, 37, 62, London, SARS-yellow, SARS-green); format: binding, human; parameters: Binding of serum 6 to linear peptides of protein X1 of SARS-CoV Urbani / Binding of serum 37 to linear peptides of protein X1 of SARS-CoV Urbani / Binding of serum 6 to looped/cyclic peptide (PEPSCAN-ELISA) / Binding of serum 37 to looped/cyclic peptide (PEPSCAN-ELISA) / Binding of serum 37 to looped/cyclic peptides of protein X1 of SARS-CoV Urbani / Binding of serum 6 to linear peptides of protein X2 / Binding of serum 37 to linear peptides of protein X2 / Binding of serum 37 to looped/cyclic peptides of protein X2 of SARS-CoV Urbani / Binding of serum 6 to linear peptides of protein M of SARS-CoV Urbani / Binding of serum 37 to linear peptides of protein M of SARS-CoV Urbani / Binding of serum 6 to looped/cyclic peptides of protein M of SARS-CoV Urbani / Binding of serum 37 to looped/cyclic peptides of protein M of SARS-CoV Urbani / Binding of serum 6 to linear peptides of protein X3 of SARS-CoV Urbani / Binding of serum 37 to linear peptides of protein X3 of SARS-CoV Urbani / Binding of serum 37 to looped/cyclic peptides of protein X3 of SARS-CoV Urbani / Binding of serum 6 to linear peptides of protein X4 of SARS-CoV Urbani / Binding of serum 37 to linear peptides of protein X4 of SARS-CoV Urbani / Binding of serum 37 to looped/cyclic peptides of protein X4 of SARS-CoV Urbani / Binding of serum 6 to linear peptides of protein X5 of SARS-CoV Urbani / Binding of serum 37 to linear peptides of protein X5 of SARS-CoV Urbani / Binding of serum 37 to looped/cyclic peptides of protein X5 of SARS-CoV Urbani / Binding of serum 6 to linear peptides of protein N of SARS-CoV Urbani / Binding of serum 37 to linear peptides of protein N of SARS-CoV Urbani / Binding of serum 6 to linear peptide (PEPSCAN-ELISA) / Binding of serum 1a to looped/cyclic peptides of protein N of SARS-CoV Urbani / Binding of serum 1b to looped/cyclic peptides of protein N of SARS-CoV Urbani / Binding of serum 2 to looped/cyclic peptides of protein N of SARS-CoV Urbani / Binding of serum 6 to looped/cyclic peptides of protein N of SARS-CoV Urbani / Binding of serum 37 to looped/cyclic peptides of protein N of SARS-CoV Urbani / Binding of serum 62 to looped/cyclic peptides of protein N of SARS-CoV Urbani / Binding of serum London to looped/cyclic peptides of protein N of SARS-CoV Urbani / Binding of serum SARS-green to looped/cyclic peptides of protein N of SARS-CoV Urbani: unit not given here
[3] = system: recombinant human anti-SARS-CoV antibody 03-018; format: binding; parameters: Binding of antibody 03-018 to linear peptides of the N protein of SARS-CoV Urbani / Binding of antibody 03-018 to looped/cyclic peptides of the N protein of SARS-CoV Urbani: unit not given here
[4] = system: rabbit serum obtained by immunizing a rabbit with the SARS-CoV strain Frankfurt 1; format: binding; parameters: Binding of a rabbit serum to linear peptides / Binding of a rabbit serum to looped peptides / Rabbit serum linear peptides / Rabbit serum looped peptides / Binding of a rabbit serum to linear peptides of protein N of SARS-CoV Urbani (Rabbit serum linear peptides) / Binding of a rabbit serum to looped/cyclic peptides of protein N of SARS-CoV Urbani (Rabbit serum looped peptides): unit not given here

HGAIKLDDKDPQFKD
Control Serum Blood-Bank Looped peptides [1]: 0.4
Control serum Blood-bank linear peptides [1]: 0.6
Control serum LUMC linear peptides [1]: 0.6
Control serum LUMC looped peptides [1]: 0.4
Binding of serum 1a to linear peptides of protein N of SARS-CoV Urbani [2]: 0.2
Binding of serum 1a to looped/cyclic peptides of protein N of SARS-CoV Urbani [2]: 0.2
Binding of serum 1b to linear peptides of protein N of SARS-CoV Urbani [2]: 0.1
Binding of serum 1b to looped/cyclic peptides of protein N of SARS-CoV Urbani [2]: 0.1
Binding of serum 2 to linear peptides of protein N of SARS-CoV Urbani [2]: 0.2
Binding of serum 2 to looped/cyclic peptides of protein N of SARS-CoV Urbani [2]: 0.2
Binding of serum 6 to linear peptides of protein N of SARS-CoV Urbani [2]: 0.1
Binding of serum 6 to looped/cyclic peptides of protein N of SARS-CoV Urbani [2]: 0.1
Binding of serum 37 to linear peptides of protein N of SARS-CoV Urbani [2]: 0.8
Binding of serum 37 to looped/cyclic peptides of protein N of SARS-CoV Urbani [2]: 0.5
Binding of serum 62 to linear peptides of protein N of SARS-CoV Urbani [2]: 0.7
Binding of serum 62 to looped/cyclic peptides of protein N of SARS-CoV Urbani [2]: 0.3
Binding of serum London to linear peptides of protein N of SARS-CoV Urbani [2]: 0.6
Binding of serum London to looped/cyclic peptides of protein N of SARS-CoV Urbani [2]: 0.3
Binding of serum SARS-green to linear peptides of protein N of SARS-CoV Urbani [2]: 0.4
Binding of serum SARS-green to looped/cyclic peptides of protein N of SARS-CoV Urbani [2]: 0.3
Binding of serum SARS-yellow to linear peptides of protein N of SARS-CoV Urbani [2]: 0.6
Binding of serum SARS-yellow to looped/cyclic peptides of protein N of SARS-CoV Urbani [2]: 0.3
Binding of antibody 03-018 to linear peptides of the N protein of SARS-CoV Urbani [3]: 0.1
Binding of antibody 03-018 to looped/cyclic peptides of the N protein of SARS-CoV Urbani [3]: 0.2
Binding of a rabbit serum to linear peptides of protein N of SARS-CoV Urbani (Rabbit serum linear peptides) [4]: 0.1
Binding of a rabbit serum to looped/cyclic peptides of protein N of SARS-CoV Urbani (Rabbit serum looped peptides) [4]: 0.3

HGKEELRFPRGQGVP
Binding of Control Serum Blood-Bank to Looped peptides [1]: 0.5
Binding of Control serum Blood-bank to linear peptides [1]: 0.8
Binding of Control serum LUMC to linear peptides [1]: 0.6
Binding of Control serum LUMC to looped peptides [1]: 0.5
Binding of serum 1a to linear peptides of protein N of SARS-CoV Urbani [2]: 0.2
Binding of serum 1a to looped/cyclic peptides of protein N of SARS-CoV Urbani [2]: 0.3
Binding of serum 1b to linear peptides of protein N of SARS-CoV Urbani [2]: 0.2
Binding of serum 1b to looped/cyclic peptides of protein N of SARS-CoV Urbani [2]: 0.2
Binding of serum 2 to linear peptides of protein N of SARS-CoV Urbani [2]: 0.3
Binding of serum 2 to looped/cyclic peptides of protein N of SARS-CoV Urbani [2]: 0.4
Binding of serum 6 to linear peptides of protein N of SARS-CoV Urbani [2]: 0.1
Binding of serum 6 to looped/cyclic peptides of protein N of SARS-CoV Urbani [2]: 0.2
Binding of serum 37 to linear peptides of protein N of SARS-CoV Urbani [2]: 0.7
Binding of serum 37 to looped/cyclic peptides of protein N of SARS-CoV Urbani [2]: 0.5
Binding of serum 62 to linear peptides of protein N of SARS-CoV Urbani [2]: 0.7
Binding of serum 62 to looped/cyclic peptides of protein N of SARS-CoV Urbani [2]: 0.3
Binding of serum London to linear peptides of protein N of SARS-CoV Urbani [2]: 0.5
Binding of serum London to looped/cyclic peptides of protein N of SARS-CoV Urbani [2]: 0.4
Binding of serum SARS-green to linear peptides of protein N of SARS-CoV Urbani [2]: 0.5
Binding of serum SARS-green to looped/cyclic peptides of protein N of SARS-CoV Urbani [2]: 0.2
Binding of serum SARS-yellow to linear peptides of protein N of SARS-CoV Urbani [2]: 0.7
Binding of serum SARS-yellow to looped/cyclic peptides of protein N of SARS-CoV Urbani [2]: 0.5
Binding of antibody 03-018 to linear peptides of the N protein of SARS-CoV Urbani [3]: 0.1
Binding of antibody 03-018 to looped/cyclic peptides of the N protein of SARS-CoV Urbani [3]: 0.2
Binding of a rabbit serum to linear peptides of protein N of SARS-CoV Urbani (Rabbit serum linear peptides) [4]: 0.1
Binding of a rabbit serum to looped/cyclic peptides of protein N of SARS-CoV Urbani (Rabbit serum looped peptides) [4]: 0.3

HIDAYKTFPPTEPKK
Control Serum Blood-Bank Looped peptides [1]: 0.4
Control serum Blood-bank linear peptides [1]: 0.6
Control serum LUMC linear peptides [1]: 0.7
Control serum LUMC looped peptides [1]: 0.3
Binding of serum 1a to linear peptides of protein N of SARS-CoV Urbani [2]: 0.2
Binding of serum 1a to looped/cyclic peptides of protein N of SARS-CoV Urbani [2]: 0.2
Binding of serum 1b to linear peptides of protein N of SARS-CoV Urbani [2]: 0.1
Binding of serum 1b to looped/cyclic peptides of protein N of SARS-CoV Urbani [2]: 0.1
Binding of serum 2 to linear peptides of protein N of SARS-CoV Urbani [2]: 0.2
Binding of serum 2 to looped/cyclic peptides of protein N of SARS-CoV Urbani [2]: 0.2
Binding of serum 6 to linear peptides of protein N of SARS-CoV Urbani [2]: 0.2
Binding of serum 6 to looped/cyclic peptides of protein N of SARS-CoV Urbani [2]: 0.1
Binding of serum 37 to linear peptides of protein N of SARS-CoV Urbani [2]: 0.6
Binding of serum 37 to looped/cyclic peptides of protein N of SARS-CoV Urbani [2]: 0.3
Binding of serum 62 to linear peptides of protein N of SARS-CoV Urbani [2]: 0.6
Binding of serum 62 to looped/cyclic peptides of protein N of SARS-CoV Urbani [2]: 0.2
Binding of serum London to linear peptides of protein N of SARS-CoV Urbani [2]: 0.4
Binding of serum London to looped/cyclic peptides of protein N of SARS-CoV Urbani [2]: 0.3
Binding of serum SARS-green to linear peptides of protein N of SARS-CoV Urbani [2]: 0.2
Binding of serum SARS-green to looped/cyclic peptides of protein N of SARS-CoV Urbani [2]: 0.0
Binding of serum SARS-yellow to linear peptides of protein N of SARS-CoV Urbani [2]: 0.5
Binding of serum SARS-yellow to looped/cyclic peptides of protein N of SARS-CoV Urbani [2]: 0.0
Binding of antibody 03-018 to linear peptides of the N protein of SARS-CoV Urbani [3]: 0.1
Binding of antibody 03-018 to looped/cyclic peptides of the N protein of SARS-CoV Urbani [3]: 0.2
Binding of a rabbit serum to linear peptides of protein N of SARS-CoV Urbani (Rabbit serum linear peptides) [4]: 0.1
Binding of a rabbit serum to looped/cyclic peptides of protein N of SARS-CoV Urbani (Rabbit serum looped peptides) [4]: 0.0
